Tests used:
Conditions in all cases: 48 h
P12-Ichikawa [1] = experiment: cell viability relative to DMSO control; higher = less cytotoxic
Summary of the method: (§1)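 NOMO1 or SEM cells were plated at 500 cells/well and P12-Ichikawa cells at 1000 cells/well in 1536-well plates (5 μl), after each leukemia line had been adapted for at least four passages in each medium. Pin dosing delivered library compounds in DMSO at 11 threefold concentrations, 47 μM to 0.79 nM. CellTiter-Glo One luminescence was read after 48 h at 37°C. Viability is reported as a per-plate percentage of DMSO wells, with cell-free wells as background.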

SEM cells [2] = experiment: as above
Summary of the method: as §1

P12-Ichikawa [3] = experiment: AUC of viability dose-response curve (% viability x log10 dose units); higher = less sensitive
Summary of the method: (§2)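 Over 48 h at 37°C, leukemia cells in 1536-well plates (500 or 1000 cells/well), adapted to each medium, received library compounds in DMSO at 11 threefold doses from 47 μM to 0.79 nM. CellTiter-Glo One luminescence, normalised per plate to DMSO and cell-free wells, was fitted by a four-parameter log-logistic function of log10 dose. The area under the curve was then integrated by trapezoidal rule, after scaling curves above full viability and removing those that failed quality control.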

NOMO1 [4] = experiment: as above
Summary of the method: as §2

SEM cells [5] = experiment: as above
Summary of the method: as §2

NOMO1 [6] = experiment: cell viability relative to DMSO control; higher = less cytotoxic
Summary of the method: as §1

NC\1=N\C(=O)N(\C=C1F)[C@H]2C[C@H](O)[C@@H](CO)O2
cell viability [%]
Conditions | P12-Ichikawa [1] | SEM cells [2]
HPLM + 10% dialyzed FBS, 0.000781 µM | 118 | 110
HPLM + 10% dialyzed FBS, 0.00234 µM | 127 | 123
HPLM + 10% dialyzed FBS, 0.00702 µM | 104 | 116
HPLM + 10% dialyzed FBS, 0.0211 µM | 101 | 89.9
HPLM + 10% dialyzed FBS, 0.0632 µM | 90.6 | 63.4
HPLM + 10% dialyzed FBS, 0.19 µM | 65.2 | 30.8
HPLM + 10% dialyzed FBS, 0.569 µM | 43.7 | 47.2
HPLM + 10% dialyzed FBS, 1.71 µM | 45.4 | 43.6
HPLM + 10% dialyzed FBS, 5.12 µM | 37 | 45.5
HPLM + 10% dialyzed FBS, 15.4 µM | 27.9 | 34.7
HPLM + 10% dialyzed FBS, 46.1 µM | 36.9 | 39.7
RPMI 5 mM glucose + 10% dialyzed FBS, 0.000781 µM | – | 125
RPMI 5 mM glucose + 10% dialyzed FBS, 0.00234 µM | – | 128
RPMI 5 mM glucose + 10% dialyzed FBS, 0.00702 µM | – | 93
RPMI 5 mM glucose + 10% dialyzed FBS, 0.0211 µM | – | 53.8
RPMI 5 mM glucose + 10% dialyzed FBS, 0.0632 µM | – | 38.7
RPMI 5 mM glucose + 10% dialyzed FBS, 0.19 µM | – | 21.8
RPMI 5 mM glucose + 10% dialyzed FBS, 0.569 µM | – | 35.4
RPMI 5 mM glucose + 10% dialyzed FBS, 1.71 µM | – | 40.1
RPMI 5 mM glucose + 10% dialyzed FBS, 5.12 µM | – | 28
RPMI 5 mM glucose + 10% dialyzed FBS, 15.4 µM | – | 30.1
RPMI 5 mM glucose + 10% dialyzed FBS, 46.1 µM | – | 28.5

AUC of viability dose-response curve
Conditions | NOMO1 [4] | P12-Ichikawa [3] | SEM cells [5]
HPLM + 10% dialyzed FBS | 280 | 285 | 270
RPMI 5 mM glucose + 10% FBS | 360 | 279 | 359
RPMI 5 mM glucose + 10% dialyzed FBS | 239 | 264 | 201

Cc1ncc(-c2ccnc(Nc3ccc([S+](C)(=O)[O-])cc3)n2)n1C(C)C
AUC of viability dose-response curve
Conditions | NOMO1 [4] | P12-Ichikawa [3] | SEM cells [5]
HPLM + 10% dialyzed FBS | 400 | 437 | 367
RPMI 5 mM glucose + 10% FBS | 396 | 412 | 357
RPMI 5 mM glucose + 10% dialyzed FBS | 389 | 416 | 380

Cn1cnc([N+](=O)[O-])c1Sc1ncnc2nc[nH]c12
cell viability [%]
Conditions | NOMO1 [6] | P12-Ichikawa [1] | SEM cells [2]
HPLM + 10% dialyzed FBS, 0.000781 µM | 79.8 | 95.4 | 83.9
HPLM + 10% dialyzed FBS, 0.00234 µM | 79.6 | 97 | 90.7
HPLM + 10% dialyzed FBS, 0.00702 µM | 107 | 98.4 | 99.3
HPLM + 10% dialyzed FBS, 0.0211 µM | 99.1 | 95.7 | 88
HPLM + 10% dialyzed FBS, 0.0632 µM | 109 | 102 | 101
HPLM + 10% dialyzed FBS, 0.19 µM | 93.9 | 97.7 | 100
HPLM + 10% dialyzed FBS, 0.569 µM | 114 | 96.5 | 95.7
HPLM + 10% dialyzed FBS, 1.71 µM | 89.9 | 86 | 83
HPLM + 10% dialyzed FBS, 5.12 µM | 6.49 | 36.2 | 103
HPLM + 10% dialyzed FBS, 15.4 µM | 6.93 | 28.4 | 24.4
HPLM + 10% dialyzed FBS, 46.1 µM | 7.54 | 29.2 | 20.8
RPMI 5 mM glucose + 10% FBS, 0.000781 µM | 79.6 | 81.8 | 87.3
RPMI 5 mM glucose + 10% FBS, 0.00234 µM | 87.5 | 88.5 | 86.8
RPMI 5 mM glucose + 10% FBS, 0.00702 µM | 91.3 | 82.1 | 93.4
RPMI 5 mM glucose + 10% FBS, 0.0211 µM | 96.6 | 88.5 | 108
RPMI 5 mM glucose + 10% FBS, 0.0632 µM | 85.1 | 99.2 | 88.2
RPMI 5 mM glucose + 10% FBS, 0.19 µM | 95.6 | 95.1 | 92.1
RPMI 5 mM glucose + 10% FBS, 0.569 µM | 82.8 | 90.9 | 100
RPMI 5 mM glucose + 10% FBS, 1.71 µM | 73.1 | 79.9 | 43.5
RPMI 5 mM glucose + 10% FBS, 5.12 µM | 57.4 | 64.5 | 23.8
RPMI 5 mM glucose + 10% FBS, 15.4 µM | 6.27 | 28.3 | 24.9
RPMI 5 mM glucose + 10% FBS, 46.1 µM | 5.14 | 19.4 | 15.4
RPMI 5 mM glucose + 10% dialyzed FBS, 0.000781 µM | 88.9 | 88.9 | 90.3
RPMI 5 mM glucose + 10% dialyzed FBS, 0.00234 µM | 96.7 | 95.3 | 82.8
RPMI 5 mM glucose + 10% dialyzed FBS, 0.00702 µM | 93.3 | 98.1 | 84.6
RPMI 5 mM glucose + 10% dialyzed FBS, 0.0211 µM | 90 | 91 | 71.8
RPMI 5 mM glucose + 10% dialyzed FBS, 0.0632 µM | 98.6 | 97.2 | 88.9
RPMI 5 mM glucose + 10% dialyzed FBS, 0.19 µM | 92.2 | 92.1 | 89.1
RPMI 5 mM glucose + 10% dialyzed FBS, 0.569 µM | 90 | 88.5 | 77
RPMI 5 mM glucose + 10% dialyzed FBS, 1.71 µM | 77.9 | 72.6 | 32.1
RPMI 5 mM glucose + 10% dialyzed FBS, 5.12 µM | 48.6 | 63.2 | 28.7
RPMI 5 mM glucose + 10% dialyzed FBS, 15.4 µM | 6.5 | 21.2 | 20.7
RPMI 5 mM glucose + 10% dialyzed FBS, 46.1 µM | 6.03 | 13.7 | 14.3

AUC of viability dose-response curve
Conditions | NOMO1 [4] | P12-Ichikawa [3] | SEM cells [5]
HPLM + 10% dialyzed FBS | 353 | 381 | 398
RPMI 5 mM glucose + 10% FBS | 342 | 365 | 337
RPMI 5 mM glucose + 10% dialyzed FBS | 353 | 367 | 299

CCCCCCCCCCCCc1ccc([S+](=O)([O-])Nc2nncs2)cc1
AUC of viability dose-response curve
Conditions | NOMO1 [4] | P12-Ichikawa [3] | SEM cells [5]
HPLM + 10% dialyzed FBS | 390 | 411 | 447
RPMI 5 mM glucose + 10% FBS | 443 | 460 | 360
RPMI 5 mM glucose + 10% dialyzed FBS | 452 | 451 | 415

COc1ccc(-c2ccc3cc(C(=O)O)ccc3c2)cc1C12CC3CC(CC(C3)C1)C2
AUC of viability dose-response curve
Conditions | NOMO1 [4] | P12-Ichikawa [3] | SEM cells [5]
HPLM + 10% dialyzed FBS | 436 | 465 | 459
RPMI 5 mM glucose + 10% FBS | 441 | 447 | 468
RPMI 5 mM glucose + 10% dialyzed FBS | 387 | 458 | 459

C[C@]\12CCC(=O)\C=C1[C@@H]3C[C@@H]3[C@@H]4[C@@H]2CC[C@@]5(C)[C@H]4[C@@H]6C[C@@H]6[C@@]57CCC(=O)O7
cell viability [%], SEM cells [2]
Conditions | HPLM + 10% dialyzed FBS | RPMI 5 mM glucose + 10% FBS
0.000781 µM | 89.1 | 98.6
0.00234 µM | 97.2 | 111
0.00702 µM | 107 | 115
0.0211 µM | 123 | 117
0.0632 µM | 120 | 137
0.19 µM | 112 | 146
0.569 µM | 106 | 124
1.71 µM | 107 | 134
5.12 µM | 133 | 119
15.4 µM | 107 | 125
46.1 µM | 104 | 146

AUC of viability dose-response curve
Conditions | NOMO1 [4] | P12-Ichikawa [3] | SEM cells [5]
HPLM + 10% dialyzed FBS | 469 | 474 | 450
RPMI 5 mM glucose + 10% FBS | 477 | 468 | 451
RPMI 5 mM glucose + 10% dialyzed FBS | 471 | 471 | 468

CC/1=C(\CCN2CCC(CC2)C3=NOC4=C3C=CC(=C4)F)C(=O)N/5CCCCC5=N1
cell viability [%], HPLM + 10% dialyzed FBS
Conditions | P12-Ichikawa [1] | SEM cells [2]
0.000781 µM | 125 | 102
0.00234 µM | 120 | 91.1
0.00702 µM | 122 | 106
0.0211 µM | 118 | 103
0.0632 µM | 130 | 122
0.19 µM | 124 | 124
0.569 µM | 127 | 72.9
1.71 µM | 116 | 45.9
5.12 µM | 126 | 112
15.4 µM | 133 | 115
46.1 µM | 127 | 110

AUC of viability dose-response curve
Conditions | NOMO1 [4] | P12-Ichikawa [3] | SEM cells [5]
HPLM + 10% dialyzed FBS | 457 | 463 | 475
RPMI 5 mM glucose + 10% FBS | 477 | 457 | 473
RPMI 5 mM glucose + 10% dialyzed FBS | 472 | 476 | 468
